From paper PMC5908784, “Extracellular loops 2 and 3 of the calcitonin receptor selectively modify agonist binding and efficacy” (Biochemical Pharmacology, 2018)
Changes are numbered by the printed parent chain. Where a SMILES comes first, the peptide text is derived from it. Bridges are numbered along the chain shown (N, C = ends).

Key:
Assay in all cases: cAMP accumulation
Type in all cases: cell-based
Conditions in all cases: mean ± S.E.M.; for Emax: cAMP maximal response, SEM; for EC50: cAMP, CV1-FlpIn cells, 30 min, IBMX
[1] = target: T1, hCTR D373A (Homo sapiens, UniProt P30988, D373A)
T1 construct: c-Myc (N); expressed in transfected cells
T1 sequence (P30988 25-474 D373A): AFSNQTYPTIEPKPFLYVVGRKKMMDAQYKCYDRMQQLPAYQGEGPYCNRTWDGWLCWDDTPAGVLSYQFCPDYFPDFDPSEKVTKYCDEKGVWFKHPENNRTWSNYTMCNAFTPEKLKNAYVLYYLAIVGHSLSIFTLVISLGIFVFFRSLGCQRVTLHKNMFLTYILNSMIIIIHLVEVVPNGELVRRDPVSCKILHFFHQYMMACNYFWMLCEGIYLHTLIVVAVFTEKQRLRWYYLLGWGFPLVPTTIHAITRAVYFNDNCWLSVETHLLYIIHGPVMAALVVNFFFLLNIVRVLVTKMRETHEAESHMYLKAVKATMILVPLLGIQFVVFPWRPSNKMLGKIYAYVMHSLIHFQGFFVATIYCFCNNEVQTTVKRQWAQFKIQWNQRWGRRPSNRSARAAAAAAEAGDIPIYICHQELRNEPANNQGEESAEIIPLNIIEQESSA
Protocol: (§1) Cells (2.5 × 10^4 cells/well) were seeded into 96-well plates and incubated overnight. Cells were stimulated with increasing concentrations of ligands for 30 min in the presence of IBMX. The liquid was discarded, changed to absolute ethanol and volatilized to dryness at room temperature. […] Data were normalized to the response of 100 μM forskolin.
(§2) Data were corrected for radioligand occupancy using the Cheng-Prusoff equation in Prism; as such data are reported as pKi. Emax and EC50 were estimated from concentration-response curves using with a 3-parameter logistic equation in Prism (v7). These values are a composite of functional affinity, efficacy and stimulus response coupling. […] Significance was accepted at P < 0.05.

[2] = target: T2, hCTR V357A (Homo sapiens, UniProt P30988, V357A)
T2 construct: c-Myc (N); expressed in transfected cells
T2 sequence (P30988 25-474 V357A): T1 sequence (P30988 25-474 D373A) with V333A, A349D
Protocol: as §1, §2

[3] = target: T3, hCTR V375A (Homo sapiens, UniProt P30988, V375A)
T3 construct: c-Myc (N); expressed in transfected cells
T3 sequence (P30988 25-474 V375A): T1 sequence (P30988 25-474 D373A) with A349D, V351A
Protocol: as §1, §2

[4] = target: T4, hCTR Y284A (Homo sapiens, UniProt P30988, Y284A)
T4 construct: expressed in transfected cells
T4 sequence (P30988 25-474 Y284A): T1 sequence (P30988 25-474 D373A) with Y260A, A349D
Protocol: as §1, §2

[5] = target: T5, hCTR Y374A (Homo sapiens, UniProt P30988, Y374A)
T5 construct: c-Myc (N); expressed in transfected cells
T5 sequence (P30988 25-474 Y374A): T1 sequence (P30988 25-474 D373A) with A349D, Y350A
Protocol: as §1, §2

Row | SMILES | Emax [1] | Emax [2] | Emax [3] | Emax [4] | Emax [5] | EC50 [1] | EC50 [2] | EC50 [3] | EC50 [4] | EC50 [5]
1 | CC(C)C[C@H](NC(=O)[C@H](CC(N)=O)NC(=O)[C@H](CC(N)=O)NC(=O)[C@H](CO)NC(=O)[C@H](CO)NC(=O)[C@H](CCCNC(=N)N)NC(=O)[C@@H](NC(=O)[C@H](CC(C)C)NC(=O)[C@H](Cc1ccccc1)NC(=O)[C@H](CC(N)=O)NC(=O)[C@H](C)NC(=O)[C@H](CC(C)C)NC(=O)[C@H](CCCNC(=N)N)NC(=O)[C@H](CCC(N)=O)NC(=O)[C@@H](NC(=O)[C@H](C)NC(=O)[C@@H]1CSSC[C@H](NC(=O)[C@@H](N)CCCCN)C(=O)N[C@@H](CC(N)=O)C(=O)N[C@@H]([C@@H](C)O)C(=O)N[C@@H](C)C(=O)N[C@@H]([C@@H](C)O)C(=O)N1)[C@@H](C)O)C(C)C)C(=O)NCC(=O)N1CCC[C@H]1C(=O)N[C@H](C(=O)N[C@@H](CC(C)C)C(=O)N1CCC[C@H]1C(=O)N1CCC[C@H]1C(=O)N[C@H](C(=O)N[C@@H](CC(N)=O)C(=O)N[C@H](C(=O)NCC(=O)N[C@@H](CO)C(=O)N[C@@H](CC(N)=O)C(=O)N[C@H](C(=O)N[C@@H](Cc1ccc(O)cc1)C(N)=O)[C@@H](C)O)C(C)C)[C@@H](C)O)C(C)C [rAmy] | 64 ± 16% | 88 ± 10% | 92 ± 9% | 101 ± 10% | 92 ± 9% | – | – | – | – | –
2 | CC[C@H](C)[C@H](NC(=O)[C@H](C)NC(=O)[C@@H](NC(=O)[C@H](CCC(N)=O)NC(=O)[C@@H]1CCCN1C(=O)[C@H](Cc1ccccc1)NC(=O)[C@@H](NC(=O)[C@H](Cc1c[nH]cn1)NC(=O)[C@H](Cc1ccccc1)NC(=O)[C@H](CCCCN)NC(=O)[C@H](CC(N)=O)NC(=O)[C@H](Cc1ccccc1)NC(=O)[C@H](CC(=O)O)NC(=O)[C@H](CCC(N)=O)NC(=O)[C@@H](NC(=O)[C@H](Cc1ccc(O)cc1)NC(=O)[C@@H](NC(=O)CNC(=O)[C@H](CC(C)C)NC(=O)[C@H](CCSC)NC(=O)[C@@H]1CSSC[C@H](N)C(=O)NCC(=O)N[C@@H](CC(N)=O)C(=O)N[C@@H](CC(C)C)C(=O)N[C@@H](CO)C(=O)N[C@@H]([C@@H](C)O)C(=O)N1)[C@@H](C)O)[C@@H](C)O)[C@@H](C)O)[C@@H](C)O)C(=O)NCC(=O)N[C@H](C(=O)NCC(=O)N[C@@H](C)C(=O)N1CCC[C@H]1C(N)=O)C(C)C [hCT] | 142 ± 8% | 137 ± 6% | 122 ± 7% | 103 ± 10% | 83.2 ± 5% | – | – | – | – | –
3 | CC(C)C[C@H](NC(=O)CNC(=O)[C@H](C)NC(=O)[C@H](CC(C)C)NC(=O)[C@H](CCCNC(=N)N)NC(=O)[C@H](Cc1cnc[nH]1)NC(=O)[C@@H](NC(=O)[C@@H](NC(=O)[C@@H]1CSSC[C@H](NC(=O)[C@H](C)N)C(=O)N[C@@H](CC(=O)O)C(=O)N[C@@H]([C@@H](C)O)C(=O)N[C@@H](C)C(=O)N[C@@H]([C@@H](C)O)C(=O)N1)C(C)C)[C@@H](C)O)C(=O)N[C@@H](CC(C)C)C(=O)N[C@@H](CO)C(=O)N[C@@H](CCCNC(=N)N)C(=O)N[C@@H](CO)C(=O)NCC(=O)NCC(=O)N[C@H](C(=O)N[C@H](C(=O)N[C@@H](CCCCN)C(=O)N[C@@H](CC(N)=O)C(=O)N[C@@H](CC(N)=O)C(=O)N[C@@H](Cc1ccccc1)C(=O)N[C@H](C(=O)N1CCC[C@H]1C(=O)N[C@H](C(=O)N[C@@H](CC(N)=O)C(=O)N[C@H](C(=O)NCC(=O)N[C@@H](CO)C(=O)N[C@@H](CCCCN)C(=O)N[C@@H](C)C(=O)N[C@@H](Cc1ccccc1)C(N)=O)C(C)C)[C@@H](C)O)C(C)C)C(C)C)C(C)C [hαCGRP] | 34 ± 5% | 82 ± 10% | 114 ± 17% | 139 ± 22% | 82 ± 12% | 11.2 nM | 29.5 nM | 20.4 nM | 19.1 nM | 25.1 nM
4 | CC(C)C[C@H](NC(=O)[C@H](CCCCN)NC(=O)CNC(=O)[C@H](CC(C)C)NC(=O)[C@@H](NC(=O)[C@@H]1CSSC[C@H](N)C(=O)N[C@@H](CO)C(=O)N[C@@H](CC(N)=O)C(=O)N[C@@H](CC(C)C)C(=O)N[C@@H](CO)C(=O)N[C@@H]([C@@H](C)O)C(=O)N1)C(C)C)C(=O)N[C@@H](CO)C(=O)N[C@@H](CCC(N)=O)C(=O)N[C@@H](CCC(=O)O)C(=O)N[C@@H](CC(C)C)C(=O)N[C@@H](Cc1c[nH]cn1)C(=O)N[C@@H](CCCCN)C(=O)N[C@@H](CC(C)C)C(=O)N[C@@H](CCC(N)=O)C(=O)N[C@H](C(=O)N[C@@H](Cc1ccc(O)cc1)C(=O)N1CCC[C@H]1C(=O)N[C@@H](CCCNC(=N)N)C(=O)N[C@H](C(=O)N[C@@H](CC(N)=O)C(=O)N[C@H](C(=O)NCC(=O)N[C@@H](CO)C(=O)NCC(=O)N[C@H](C(=O)N1CCC[C@H]1C(N)=O)[C@@H](C)O)[C@@H](C)O)[C@@H](C)O)[C@@H](C)O [sCT] | 116 ± 8% | 133 ± 12% | 106 ± 5% | 111 ± 11% | 96 ± 5% | – | – | – | – | –
5 | CSCC[C@H](NC(=O)CNC(=O)[C@H](CO)NC(=O)[C@H](Cc1ccccc1)NC(=O)[C@H](CCCNC(=N)N)NC(=O)[C@H](Cc1c[nH]cn1)NC(=O)[C@H](Cc1ccccc1)NC(=O)[C@H](CC(N)=O)NC(=O)[C@H](CC(N)=O)NC(=O)[C@H](CC(C)C)NC(=O)[C@H](CC(N)=O)NC(=O)[C@H](CCCNC(=N)N)NC(=O)[C@H](Cc1c[nH]c2ccccc12)NC(=O)[C@H](Cc1ccc(O)cc1)NC(=O)[C@H](C)NC(=O)[C@H](CO)NC(=O)[C@H](CC(C)C)NC(=O)[C@@H](NC(=O)[C@@H]1CSSC[C@H](N)C(=O)N[C@@H](CO)C(=O)N[C@@H](CC(N)=O)C(=O)N[C@@H](CC(C)C)C(=O)N[C@@H](CO)C(=O)N[C@@H]([C@@H](C)O)C(=O)N1)C(C)C)C(=O)NCC(=O)N[C@@H](Cc1ccccc1)C(=O)NCC(=O)N1CCC[C@H]1C(=O)N[C@@H](CCC(=O)O)C(=O)N[C@H](C(=O)N1CCC[C@H]1C(N)=O)[C@@H](C)O [pCT] (H-CSNLSTCVLSAYWRNLNNFHRFSGMGFGPETP-NH2; disulfide 1-7) | 158 ± 9% | 154 ± 17% | 151 ± 8% | 104 ± 9% | 90 ± 9% | 0.389 nM | 0.151 nM | 0.0316 nM | 0.0631 nM | 0.02 nM
